Reference: publication PMC3763447 (Cell Death & Disease, 2013)
Peptide text beside a SMILES is read from it. * marks the point of attachment. Cbz = O=C(OCc1ccccc1)*

Legend:
Experiment in all cases: fluorogenic substrate
Type in all cases: biochemical
[1] = molecular target: T1, 20S proteasome β1 subunit (PGPH activity) (Homo sapiens, UniProt P28072)
T1 sequence (P28072 35-239): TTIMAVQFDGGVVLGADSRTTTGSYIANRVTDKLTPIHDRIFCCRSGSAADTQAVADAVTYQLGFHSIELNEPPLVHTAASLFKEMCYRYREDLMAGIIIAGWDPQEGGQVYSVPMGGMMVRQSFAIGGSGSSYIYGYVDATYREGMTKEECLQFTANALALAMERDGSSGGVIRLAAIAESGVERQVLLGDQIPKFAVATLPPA

[2] = molecular target: T1, 20S proteasome β1 subunit (PGPH activity); remark: listed apart in the source
[3] = molecular target: T2, 20S proteasome β5 subunit (chymotrypsin-like activity) (Homo sapiens, UniProt P28074)
T2 sequence (P28074 60-263): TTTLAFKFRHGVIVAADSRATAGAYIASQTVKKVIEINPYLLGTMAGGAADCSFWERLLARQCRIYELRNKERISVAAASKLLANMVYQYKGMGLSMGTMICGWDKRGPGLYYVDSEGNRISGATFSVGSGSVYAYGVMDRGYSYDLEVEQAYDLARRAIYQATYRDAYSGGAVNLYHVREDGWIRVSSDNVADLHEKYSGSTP

IC50 [2] [µM] | IC50 [3] [µM] | Structure (SMILES) | fluorogenic substrate (Bz-LLE-AMC) assay with purified 20S proteasome [1]
 |  | CC(C)C[C@@H](C=O)NC(=O)[C@H](CC(C)C)NC(=O)[C@H](CC(C)C)NC(=O)OCc1ccccc1 [MG132] (Cbz-Leu-Leu-Leu-aldehyde) | MG132, a known proteasome inhibitor for a positive control, showed more potent inhibition on the proteasome ChT-L and PGPH activities
5.33 | 6.99 | COc1ccc(O)c2c1Oc1cccc(c1)CCc1ccc(O)c(c1)Oc1ccc(cc1)CC2 [Mar, marchantin M] | 
